Experimental data: patent US20230022724A1, “NOVEL IMIDAZOPYRAZINE DERIVATIVES” (Hoffmann-La Roche Inc., priority 2018, published 2023)
Structures can show the parent of a compound that is named as a salt.

tested on: Acinetobacter baumannii ATCC17978; assay: Antimicrobial susceptibility testing: 90% growth inhibitory concentration (IC90) determination; type: cell-based; conditions: 90% growth inhibitory concentration, Acinetobacter baumannii ATCC17978, Iso-Sensitest broth, OD 600 nm over 16 h; read-out: ATCC17978 IC90
Protocol: The in vitro antimicrobial activity of the compounds was determined according to the following procedure:
The assay used a 10-points Iso-Sensitest broth medium to measure quantitatively the in vitro activity of the compounds against Acinetobacter baumannii ATCC17978 and Acinetobacter baumannii ATCC17961.
Stock compounds in DMSO were serially twofold diluted (e.g. range from 50 to 0.097 μM final concentration) in 384 wells microtiter plates and inoculated with 49 μl the bacterial suspension in Iso-Sensitest medium to have a final cell concentration of ˜5×10^(5) CFU/ml in a final volume/well of 50 ul/well. Microtiter plates were incubated at 35±2° C.
Bacterial cell growth was determined with the measurement of optical density at λ=600 nm each 20 minutes over a time course of 16 h. Growth inhibition was calculated during the logarithmic growth of the bacterial cells with determination of the concentration inhibiting 50% (IC50) and 90% (IC90) of the growth.
Table 1 provides the 90% growth inhibitory concentrations (IC90) in micromoles per liter of the compounds of present invention obtained against the strain Acinetobacter baumannii ATCC17978 and Acinetobacter baumannii ATCC17961.

With `CNCC(=O)N1CCN(C(=O)c2ccc(Nc3nccn4c(-c5ccc(OC)c(F)c5)cnc34)cc2Cl)CC1` [Example 40, 1-(4-(2-chloro-4-((3-(3-fluoro-4-methoxyphenyl)imidazo [1,2-a]pyrazin-8-yl)amino)benzoyl)piperazin-1-yl)-2-(methylamino)ethanone] as the compound, how does the IC90 read?
Its IC90 is 150 nM.

same assay, conditions: Acinetobacter baumannii, ATCC17978, 16 h, 90% growth inhibitory concentration, Acinetobacter baumannii ATCC17978, Iso-Sensitest broth, OD 600 nm over 16 h; read-out: ATCC17978 IC90

Which IC90 does the source give for `CNCC(=O)N1CCN(C(=O)c2ccc(Nc3nccn4c(-c5ccc(OC)c(F)c5)cnc34)cc2Cl)CC1` [Example 18, 1-(4-(2-chloro-4-((3-(3-fluoro-4-methoxyphenyl)imidazo[1,2-a]pyrazin-8-yl)amino)benzoyl)piperazin-1-yl)-2-(methylamino)ethan-1-one hydrochloride] here?
The IC90 was 180 nM.

Which IC90 does the source give for `COc1ccc(-c2cnc3c(Nc4ccc(C(=O)N5CCC(C(=O)N[C@@H]6CCNC6)CC5)c(Cl)c4)nccn23)c(F)c1F` [Example 39, (R)-1-(2-chloro-4-((3-(2,3-difluoro-4-methoxyphe-nyl)imida-zo[1,2-a]pyrazin-8-yl)amino)benzoyl)-N-(pyrrolidin-3-yl)piperidine-4-carboxamide hydrochloride] here?
Its IC90 is 200 nM.

With `N#CCOc1ccc(-c2cnc3c(Nc4ccc(C(=O)N5CCN(c6ncccn6)CC5)c(Cl)c4)nccn23)c(F)c1F` [Example 22, 2-[4-[8-[3-chloro-4-(4-pyrimidin-2-ylpiperazine-1-carbonyl)anilino]imidazo[1,2-a]pyrazin-3-yl]-2,3-difluoro-phenoxy]acetonitrile] as the compound, how does the IC90 read?
The IC90 was 690 nM.

Which IC90 does the source give for `COc1ccc(-c2cnc3c(Nc4ccc(C(=O)N5CCNC(C(=O)O)C5)c(Cl)c4)nccn23)c(F)c1F` (centres unmarked) [Example 1, 4-(2-chloro-4-((3-(2,3-difluoro-4-methoxyphenyl)imidazo[1,2-a]pyrazin-8-yl)amino)benzoyl)piperazine-2-carboxylic Acid] here?
Its IC90 is 1900 nM.

For `COc1ccc(-c2cnc3c(Nc4ccc(C(=O)N5CCC(C(=O)N6CCNC(CO)C6)CC5)c(Cl)c4)nccn23)cc1F` (centres unmarked) [Example 70, [2-chloro-4-[[3-(3-fluoro-4-methoxyphenyl)imidazo[1,2-a]pyrazin-8-yl]amino]phenyl]-[4-[3-(hydroxymethyl)piperazine-1-carbonyl]piperidin-1-yl]methanone;hydrochloride], which IC90 is on record?
The IC90 was 270 nM.

Which IC90 does the source give for `COc1ccc(-c2cnc3c(Nc4ccc(C(=O)N5CCCCC5)cc4)nccn23)cc1Cl` [Example 65, [4-[[3-(3-chloro-4-methoxyphenyl)imidazo[1,2-a]pyrazin-8-yl]amino]phenyl]-piperidin-1-ylmethanone] here?
The IC90 was 1500 nM.

With `COc1ccc(-c2cnc3c(Nc4ccc(C(=O)N5CCOCC5)cc4)nccn23)cc1` [Example 61, [4-[[3-(4-methoxyphenyl)imidazo[1,2-a]pyrazin-8-yl]amino]phenyl]-morpholin-4-ylmethanone] as the compound, how does the IC90 read?
Its IC90 is 580 nM.

For `N#CCOc1ccc(-c2cnc3c(Nc4ccc(C(=O)N5CCC(c6cnc[nH]6)CC5)c(Cl)c4)nccn23)c(F)c1F` [Example 11, 2-[4-[8-[3-chloro-4-[4-(1H-imidazol-5-yl)piperidine-1-carbonyl]anilino]imidazo[1,2-a]pyrazin-3-yl]-2,3-difluoro-phenoxy]acetontrile; 2,2,2-trifluoroacetic acid], which IC90 is on record?
The IC90 was 140 nM.

For `COc1ccc(-c2cnc3c(Nc4ccc(C(=O)N5CCC(O)(CCN(C)C)CC5)c(Cl)c4)nccn23)cc1F` [Example 28, (2-chloro-4-((3-(3-fluoro-4-methoxyphenyl)imidazo[1,2-a]pyrazin-8-yl)amino)phenyl)(4-(2-(dimethylamino)ethyl)-4-hydroxypiperidin-1-yl)methanone], which IC90 is on record?
The IC90 was 140 nM.

How did the IC90 turn out when `COc1ccc(-c2cnc3c(Nc4ccc(C(=O)N5CCN(CCO)CC5)cc4)nccn23)cc1` [Example 63, [4-(2-hydroxyethyl)piperazin-1-yl]-[4-[[3-(4-methoxyphenyl)imidazo[1,2-a]pyrazin-8-yl]amino]phenyl]methanone] was run?
The IC90 was 1100 nM.

Which IC90 does the source give for `N#Cc1cc(Nc2nccn3c(-c4ccc(OC(F)F)cc4)cnc23)ccc1C(=O)N1CCC(CN)CC1` [Example 27, 2-(4-(aminomethyl)piperidine-1-carbonyl)-5-((3-(4-(difluoromethoxy)phenyl)imidazo[1,2-a]pyrazin-8-yl)amino)benzonitrile] here?
The IC90 was 1500 nM.

For `COc1ccc(-c2cnc3c(Nc4ccc(C(=O)N5CCC(C(=O)NC[C@H](O)[C@@H](O)[C@H](O)[C@H](O)CO)CC5)c(Cl)c4)nccn23)cc1F` [Example 107, 1-(2-chloro-4-((3-(3-fluoro-4-methoxyphenyl)imidazo[1,2-a]pyrazin-8-yl)amino)benzoyl)-N-((2S,3R,4R,5R)-2,3,4,5,6-pentahydroxyhexyl)piperidine-4-carboxamide], which IC90 is on record?
The IC90 was 260 nM.

How did the IC90 turn out when `CNCCN1CCN(C(=O)c2ccc(Nc3nccn4c(-c5ccc(OC)c(F)c5)cnc34)cc2Cl)CC1` [Example 20, (2-chloro-4-((3-(3-fluoro-4-methoxyphenyl)imidazo[1,2-a]pyrazin-8-yl)amino)phenyl)(4-(2-(methylamino)ethyl)piperazin-1-yl)methanone] was run?
The IC90 was 130 nM.

With `CN(C)CCN1CCN(C(=O)c2ccc(Nc3nccn4c(-c5ccc(OCC#N)c(F)c5F)cnc34)cc2Br)CC1` [Example 78, 2-[4-[8-[3-bromo-4-[4-[2-(dimethylamino)ethyl]piperazine-1-carbonyl]anilino]imidazo[1,2-a]pyrazin-3-yl]-2,3-difluorophenoxy]acetonitrile; formic acid] as the compound, how does the IC90 read?
Its IC90 is 280 nM.

For `N#CCOc1cc(Cl)c(-c2cnc3c(Nc4ccc(C(=O)N5CCC(C(=O)N6CCNC(CO)C6)CC5)c(Cl)c4)nccn23)cc1F` (centres unmarked) [Example 15, 2-[5-chloro-4-[8-[3-chloro-4-[4-[3-(hydroxymethyl)piperazine-1-carbonyl]piperidine-1-carbonyl]anilino]imidazo[1,2-a]pyrazin-3-yl]-2-fluoro-phenoxy]acetonitrile; 2,2,2-trifluoroacetic], which IC90 is on record?
The IC90 was 110 nM.

How did the IC90 turn out when `N#CCOc1ccc(-c2cnc3c(Nc4ccc(C(=O)N5CCC(c6ccncc6)CC5)c(Cl)c4)nccn23)c(F)c1F` [Example 21, 2-[4-[8-[3-chloro-4-[4-(4-pyridyl)piperidine-1-carbonyl]anilino]imidazo[1,2-a]pyrazin-3-yl]-2,3-difluoro-phenoxy]acetonitrile] was run?
Its IC90 is 870 nM.

same assay, conditions: Acinetobacter baumannii, ATCC17978, 16 h, read-out: ATCC17978 IC90

For `N#CCOc1ccc(-c2cnc3c(Nc4ccc(C(=O)N5CCC(C(=O)N6CCN[C@@H](CO)C6)CC5)c(Cl)c4)nccn23)c(F)c1F` [Example 85, 2-[4-[8-[3-chloro-4-[4-[(3R)-3-(hydroxymethyl)piperazine-1-carbonyl]piperidine-1-carbonyl]anilino]imidazo[1,2-a]pyrazin-3-yl]-2,3-difluorophenoxy]acetonitrile; formic acid], which IC90 is on record?
Its IC90 is 46 nM.

Which IC90 does the source give for `CN(C)C1CCN(CCN2CCN(C(=O)c3ccc(Nc4nccn5c(-c6ccc(OCC#N)c(F)c6F)cnc45)cc3Cl)CC2)C1` (centres unmarked) [Example 100, 2-[4-[8-[3-chloro-4-[4-[2-[3-(dimethylamino)pyrrolidin-1-yl]ethyl]piperazine-1-carbonyl]anilino]imidazo[1,2-a]pyrazin-3-yl]-2,3-difluorophenoxy]acetonitrile; 2,2,2-trifluoroacetic acid] here?
Its IC90 is 170 nM.

How did the IC90 turn out when `N#CCOc1ccc(-c2cnc3c(Nc4ccc(C(=O)N5CCC(C(=O)N6CCN[C@H](C(=O)O)C6)CC5)c(Cl)c4)nccn23)c(F)c1F` [Example 45, (2S)-4-[1-[2-chloro-4-[[3-[4-(cyanomethoxy)-2,3-difluoro-phenyl]imidazo[1,2-a]pyrazin-8-yl]amino]benzoyl]piperidine-4-carbonyl]piperazine-2-carboxylic Acid; Formic Acid] was run?
Its IC90 is 880 nM.
